# Measurements published in patent publication EP4667483A1, “HUMAN TRANSFERRIN RECEPTOR-BINDING PEPTIDE” (JCR Pharmaceuticals Co., Ltd., priority 2023, dated 2024).
# Bridge positions count the residues as written; N and C are the ends. Square brackets hold non-standard residues; d marks the D form. Peptide text beside a SMILES is read from it. * marks the point of attachment. Ala(imidazo(1,2-a)pyr3yl) = N[C@@H](Cc1cnc2ccccn12)C(=O)O; Trp(1-CH2COOH) = N[C@@H](Cc1cn(CC(=O)O)c2ccccc12)C(=O)O; NMePhe(4-COOH) = CN[C@@H](Cc1ccc(C(=O)O)cc1)C(=O)O; Nle(6-morpholino) = N[C@@H](CCCCN1CCOCC1)C(=O)O; Phe(3-COOH) = N[C@@H](Cc1cccc(C(=O)O)c1)C(=O)O; NMePhe(3-Cl) = CN[C@@H](Cc1cccc(Cl)c1)C(=O)O; 3Pal(6-NH2) = Nc1ccc(C[C@H](N)C(=O)O)cn1; NMeW = CN[C@@H](Cc1c[nH]c2ccccc12)C(=O)O; Lys(N3) = [N-]=[N+]=NCCCC[C@H](N)C(=O)O; NMeY = CN[C@@H](Cc1ccc(O)cc1)C(=O)O; Nva(3-Et) = CCC(CC)[C@H](N)C(=O)O; NMeF = CN[C@@H](Cc1ccccc1)C(=O)O; 4Pal = N[C@@H](Cc1ccncc1)C(=O)O; PEG4 = NCCOCCOCCOCCOCCC(=O)O; Carboxymethyl = O=C(O)C*
# Legend:
# [1] = biological target: T1, human transferrin receptor (hTfR) (Homo sapiens, UniProt P02786); test: SPR measurement under pH 7.4 conditions (Biacore T200, CM3 chip, hTfR captured by His Tag antibody); format: binding; settings: read-out: hTfR SPR pH7.4 KD
# T1 sequence (P02786 whole entry): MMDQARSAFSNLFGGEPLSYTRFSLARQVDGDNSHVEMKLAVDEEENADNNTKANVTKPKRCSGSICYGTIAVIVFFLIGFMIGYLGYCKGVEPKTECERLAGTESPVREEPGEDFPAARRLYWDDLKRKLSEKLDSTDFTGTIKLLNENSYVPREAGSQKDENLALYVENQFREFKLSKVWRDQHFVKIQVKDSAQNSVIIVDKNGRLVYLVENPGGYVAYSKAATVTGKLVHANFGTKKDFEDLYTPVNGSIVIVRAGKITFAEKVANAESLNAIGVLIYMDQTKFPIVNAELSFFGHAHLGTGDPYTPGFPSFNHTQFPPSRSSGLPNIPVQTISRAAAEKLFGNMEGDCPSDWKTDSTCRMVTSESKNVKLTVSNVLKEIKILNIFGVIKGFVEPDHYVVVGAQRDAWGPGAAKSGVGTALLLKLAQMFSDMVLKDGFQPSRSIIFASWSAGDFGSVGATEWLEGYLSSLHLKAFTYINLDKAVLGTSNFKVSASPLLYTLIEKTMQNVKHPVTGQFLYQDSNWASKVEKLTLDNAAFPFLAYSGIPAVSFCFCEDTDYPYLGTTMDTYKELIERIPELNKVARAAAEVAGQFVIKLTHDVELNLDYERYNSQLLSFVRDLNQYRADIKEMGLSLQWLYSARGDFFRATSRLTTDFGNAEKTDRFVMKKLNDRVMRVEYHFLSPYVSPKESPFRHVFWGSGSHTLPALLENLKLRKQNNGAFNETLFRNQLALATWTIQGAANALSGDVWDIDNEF
# [2] = biological target: T1, human transferrin receptor (hTfR); test: SPR measurement under pH 6.0 conditions (Biacore T200, NTA chip, immobilized hTfR); format: binding; settings: read-out: hTfR SPR pH6.0 KD
# [3] = SPR, pH 7.4, peptide with the linker named in the table
# [4] = SPR, pH 6.0, peptide with the linker named in the table
Structure (SMILES),"Kd ([1]; SPR, pH 7.4, Table 1-3-2-2) [nM]","Kd ([2]; SPR, pH 6.0, Table 1-3-2-2) [nM]","Kd [1, 3] [nM]","Kd [2, 4] [nM]",also measured
CC[C@H](C)[C@@H]1NC(=O)[C@H](Cc2ccc(OC)cc2)NC(=O)[C@H](Cc2ccc(O)cc2)NC(=O)[C@H](CC(N)=O)NC(=O)[C@H](Cc2c[nH]c3ncccc23)NC(=O)[C@H](C(C)C)NC(=O)[C@H](Cc2cccc(Cl)c2)N(C)C(=O)[C@H](C(C)C)NC(=O)[C@H](C)NC(=O)CSC[C@@H](C(=O)NCCOCCOCCOCCOCCC(N)=O)NC(=O)[C@H](Cc2ccc(O)cc2)N(C)C(=O)[C@H](Cc2cccc(C(=O)NCCOCCOCCOCCOCCOCCOCCOCCOCCC(=O)O)c2)NC(=O)[C@H](CCCNC(=N)N)NC(=O)[C@H](CCC(=O)NCCOCCOCCOCCOCCOCCOCCOCCOCCC(=O)O)NC(=O)[C@H]([C@@H](C)CC)NC1=O [compound 142],–,–,2.15,17.8,–
CCC(CC)[C@@H]1NC(=O)[C@H](Cc2ccc(OCC(=O)O)cc2)NC(=O)[C@H](Cc2ccc(O)cc2)NC(=O)[C@H](CC(N)=O)NC(=O)[C@H](Cc2cn(CC(=O)O)c3ccccc23)NC(=O)[C@H](C(C)C)NC(=O)[C@H](Cc2cccc(Cl)c2)N(C)C(=O)[C@H](C(C)C)NC(=O)[C@H](C)NC(=O)CSC[C@@H](C(=O)NCCOCCOCCOCCOCCC(N)=O)NC(=O)[C@H](Cc2ccc(O)cc2)N(C)C(=O)[C@H](Cc2cccc(C(=O)O)c2)NC(=O)[C@H](CCCCN2CCOCC2)NC(=O)[C@H](CCCCN2CCOCC2)NC(=O)[C@H]([C@@H](C)CC)NC1=O [compound 109] ({CH2CO}-AV[NMePhe(3-Cl)]V[Trp(1-CH2COOH)]NYY(Carboxymethyl)[Nva(3-Et)]I[Nle(6-morpholino)][Nle(6-morpholino)][Phe(3-COOH)][NMeY]C[PEG4]-NH2; thioether N-15),–,–,6.99,11.1,–
CC[C@H](C)[C@@H]1NC(=O)[C@H](Cc2ccc(OC)cc2)NC(=O)[C@H](Cc2ccc(N)nc2)NC(=O)[C@H](CC(N)=O)NC(=O)[C@H](Cc2c[nH]c3ccccc23)N(C)C(=O)[C@H](C(C)C)NC(=O)[C@H](Cc2cccc(Cl)c2)N(C)C(=O)[C@H](C(C)C)NC(=O)[C@H](C)NC(=O)CSC[C@@H](C(=O)NCCOCCOCCOCCOCCC(N)=O)NC(=O)[C@H](Cc2ccc(O)cc2)N(C)C(=O)[C@H](Cc2ccccc2)NC(=O)[C@H](CCCNC(=N)N)NC(=O)[C@H](CCC(N)=O)NC(=O)[C@H]([C@@H](C)CC)NC1=O [compound 170] ({CH2CO}-AV[NMePhe(3-Cl)]V[NMeW]N[3Pal(6-NH2)]Y(Me)IIQRF[NMeY]C[PEG4]-NH2; thioether N-15),–,–,–,–,"Kd ([1]; pH 7.4, single-cycle kinetics): 1.34 nM; Kd ([2]; pH 6.0, single-cycle kinetics): 7.61 nM"

# Second part, led by results:
"Kd ([1]; SPR, pH 7.4, Table 1-3-2-2) [nM]","Kd ([2]; SPR, pH 6.0, Table 1-3-2-2) [nM]","Kd [1, 3] [nM]","Kd [2, 4] [nM]",Structure (SMILES),also measured
81.2,384,–,–,"CC[C@H](C)[C@@H]1NC(=O)[C@H](Cc2ccc(OC)cc2)NC(=O)[C@H](Cc2ccc(N)nc2)NC(=O)[C@H](CC(N)=O)NC(=O)[C@H](Cc2cnc3ccccn23)NC(=O)[C@H](C(C)C)NC(=O)[C@H](Cc2ccccc2)N(C)C(=O)[C@H](C(C)C)NC(=O)[C@H](C)NC(=O)CSC[C@@H](C(=O)NCC(=O)N[C@@H](CCCCN=[N+]=[N-])C(N)=O)NC(=O)[C@H](Cc2ccc(C(=O)O)cc2)N(C)C(=O)[C@H](Cc2ccncc2)NC(=O)[C@H](CCCNC(=N)N)NC(=O)[C@H](CCCNC(=N)N)NC(=O)[C@H]([C@@H](C)CC)NC1=O [compound 189] ({CH2CO}-AV[NMeF]V[Ala(imidazo(1,2-a)pyr3yl)]N[3Pal(6-NH2)]Y(Me)IIRR[4Pal][NMePhe(4-COOH)]CG[Lys(N3)]-NH2; thioether N-15)",–
136,121,–,–,CCC(CC)[C@@H]1NC(=O)[C@H](Cc2ccc(OC)cc2)NC(=O)[C@H](Cc2ccc(N)nc2)NC(=O)[C@H](CC(N)=O)NC(=O)[C@H](Cc2cnc3ccccn23)NC(=O)[C@H](C(C)C)NC(=O)[C@H](Cc2cccc(Cl)c2)N(C)C(=O)[C@H](C(C)C)NC(=O)[C@H](C)NC(=O)CSC[C@@H](C(=O)NCC(=O)N[C@H](CCC(=O)O)C(=O)N[C@H](CCC(=O)O)C(=O)N[C@H](CCC(=O)O)C(=O)N[C@H](CO)C(=O)N[C@H](CO)C(=O)N[C@@H](CCCCN=[N+]=[N-])C(N)=O)NC(=O)[C@H](Cc2ccc(C(=O)O)cc2)N(C)C(=O)[C@H](Cc2ccncc2)NC(=O)[C@H](CCCNC(=N)N)NC(=O)[C@H](CCCNC(=N)N)NC(=O)[C@H]([C@@H](C)CC)NC1=O [compound 184],–
34,175,–,–,CCC(CC)[C@@H]1NC(=O)[C@H](Cc2ccc(O)cc2)NC(=O)[C@H](Cc2ccc(N)nc2)NC(=O)[C@H](CC(N)=O)NC(=O)[C@H](Cc2c[nH]c3ccccc23)N(C)C(=O)[C@H](C(C)C)NC(=O)[C@H](Cc2ccccc2)N(C)C(=O)[C@H](C(C)C)NC(=O)[C@H](C)NC(=O)CSC[C@@H](C(=O)NCC(=O)N[C@H](CCC(=O)O)C(=O)N[C@H](CCC(=O)O)C(=O)N[C@H](CCC(=O)O)C(=O)N[C@H](CO)C(=O)N[C@H](CO)C(=O)N[C@@H](CCCCN=[N+]=[N-])C(N)=O)NC(=O)[C@H](Cc2ccc(C(=O)O)cc2)N(C)C(=O)[C@H](Cc2ccc(O)cc2)NC(=O)[C@H](CCCNC(=N)N)NC(=O)[C@H](CCCCN)NC(=O)[C@H]([C@@H](C)CC)NC1=O [compound 188] ({CH2CO}-AV[NMeF]V[NMeW]N[3Pal(6-NH2)]Y[Nva(3-Et)]IKRY[NMePhe(4-COOH)]CG[dE][dE][dE][dS][dS][Lys(N3)]-NH2; thioether N-15),–
